Like-named read-outs stand apart in the source and are kept apart here. Ends that are not written are not given here.
How the values were obtained:
[1] = system: C. jejuni; assay: microbe, parasite or virus in culture
Description: (§1) Peptides dissolved in sterile distilled water and comparator antibiotics dissolved in the appropriate solvents[38] were added to sterile U-bottom polypropylene 96-well microplates at desired concentrations.

[2] = system: Ent. faecalis JH2-2; assay: microbe, parasite or virus in culture
Description: as §1

[3] = system: List. monocytogenes NCTC 11994; assay: microbe, parasite or virus in culture; conditions: NCTC 11994
Description: as §1

[4] = system: Sal. typhimurium SL1344; assay: microbe, parasite or virus in culture
Description: as §1

[5] = system: C. coli
Description: as §1

[6] = system: E. coli K12; assay: MIC, broth microdilution; format: cell-based, Escherichia coli; conditions: strain K12; cation adjusted MHB, 18–24 h
Description: as §1

[7] = system: E. coli K12; assay: Time kill kinetics; format: cell-based, Escherichia coli; conditions: at 10 min
Description: Assessment of the bactericidal activity of peptides and comparator antibiotics was performed as previously described[39] using exponential-phase cultures of pathogens grown in MHB ([…]). Peptides were added at concentrations 3 times their MIC values. Experiments were performed in quadruplicates, and CFU/ml was calculated at different time points after over overnight incubation.

[8] = system: K. pneumoniae; assay: microbe, parasite or virus in culture
Description: as §1

[9] = system: S. aureus; assay: microbe, parasite or virus in culture
Description: as §1

[10] = system: E. coli K12; assay: SPOT peptide library screen (resazurin fluorescence); format: cell-based, Escherichia coli; design: unit not given here; conditions: 75% reduction of fluorescence vs untreated controls; active IC75≤0.25, semi-active 0.25<IC75≤0.50, inactive IC75>0.5
From the text: (§2) The peptides in the created peptide library were synthesized based on the SPOT technique and pure peptides (≥95% purity) were synthesized on resin using solid phase Fmoc peptide chemistry.[16] The 135 peptides in the peptide library were screened for antimicrobial activity using both luminescent (Pseudomonas aeruginosa strain H1001)[34] and non-luminescent (epidemic methicillin resistant S. aureus EMRSA-15, Sal. typhimurium and E. coli K12) bacterial strains. Activity against non-luminescent bacteria strains was assessed by fluorescence readings (excitation/emission spectra of 560/590 nm) after the addition of resazurin dye (100 µm final concentration). The results from the screen were analysed using the MATLAB extension Gait-CAD as previously described.[35] Concentration values with a 75% reduction of luminescence or fluorescence (IC75) in relation to untreated controls were computed.

[11] = system: EMRSA-15; assay: as above; format: cell-based, Staphylococcus aureus; design: unit not given here; conditions: 75% reduction of fluorescence vs untreated controls; active IC75≤0.25, semi-active 0.25<IC75≤0.50, inactive IC75>0.5
From the text: as §2

[12] = system: Sal. typhimurium; assay: as above; format: cell-based, Salmonella enterica serovar Typhimurium; design: unit not given here; conditions: 75% reduction of fluorescence vs untreated controls; active IC75≤0.25, semi-active 0.25<IC75≤0.50, inactive IC75>0.5
From the text: as §2

[13] = system: P. aeruginosa H1001; assay: SPOT peptide library screen (luminescence); format: cell-based, Pseudomonas aeruginosa; design: unit not given here; conditions: 75% reduction of luminescence vs untreated controls; active IC75≤0.25, semi-active 0.25<IC75≤0.50, inactive IC75>0.5
From the text: as §2

[14] = strain RN4220, Sensitive, cation adjusted MHB, 18–24 h

Q: Which results are given for KFVRLKIYCRDKNKGRGISF-NH2 [P15s]?
A: MIC [1]: 128 µg/mL; MIC [2]: 128 µg/mL; MIC [3]: 128 µg/mL; MIC [4]: 128 µg/mL; MIC [5]: 128 µg/mL; MIC [6]: 64 µg/mL

Q: Which “Bactericidal activity (reduction in viable count)” value [7] does the source give for Polymyxin B here?
A: Its value is greater than 4 log10 CFU/ml.

Q: For QVRWWGRYWRRKWATCR-NH2 [P12], which MIC [1] is on record?
A: Its MIC is greater than 128 µg/mL.

Q: What about the MIC [2] of the same substance?
A: The MIC was 256 µg/mL.

Q: What about the MIC [3] of the same substance?
A: Its MIC is 128 µg/mL.

Q: What about the MIC [4] of the same substance?
A: Its MIC is 256 µg/mL.

Q: And the MIC [5]?
A: The MIC was greater than 128 µg/mL.

Q: What does the source list for RSITRPVLVRRRWRVRPVF-NH2 [P10]?
A: MIC [1]: >128 µg/mL; MIC [2]: 512 µg/mL; MIC [8]: >128 µg/mL; MIC [3]: 512 µg/mL; MIC [9]: >128 µg/mL; MIC [9, 14]: 256 µg/mL; MIC [4]: 64 µg/mL; MIC [5]: >128 µg/mL; MIC [6]: 256 µg/mL

Q: “SIKILKIYFIQGKRHWSF-NH2 (C-terminus assumed) [P11]” was tested. Which MIC [1] did it give?
A: The MIC was greater than 128 µg/mL.

Q: And the MIC [2]?
A: Its MIC is 256 µg/mL.

Q: And the MIC [3]?
A: Its MIC is 256 µg/mL.

Q: What about the MIC [4] of the same substance?
A: The MIC was 512 µg/mL.

Q: And the MIC [5]?
A: Its MIC is greater than 128 µg/mL.

Q: Which MIC [1] does the source give for TMSLRFWRWKVR-NH2 [P5] here?
A: Its MIC is 128 µg/mL.

Q: And the MIC [2]?
A: Its MIC is 64 µg/mL.

Q: What about the MIC [3] of the same substance?
A: The MIC was 64 µg/mL.

Q: What about the MIC [9, 14] of the same substance?
A: The MIC was 64 µg/mL.

Q: What about the MIC [4] of the same substance?
A: Its MIC is 64 µg/mL.

Q: And the MIC [5]?
A: The MIC was 128 µg/mL.

Q: What about the MIC [6] of the same substance?
A: Its MIC is 64 µg/mL.

Q: With TTAPCKCWIGLRRCFK [P18] as the substance, how does the “IC75 values indicating activity classes, E. coli” value [10] read?
A: The value was 0.36.

Q: What about the “IC75 values indicating activity classes, EMRSA-15” value [11] of the same substance?
A: Its value is 3.77.

Q: What about the “IC75 values indicating activity classes, Sal. typhimurium” value [12] of the same substance?
A: The value was 1.99.

Q: And the “IC75 values indicating activity classes, P. aeruginosa H1001” value [13]?
A: Its value is 1.55.

Q: How did the MIC [1] turn out when VLHTGYRKFLHRSKRFFHLR-NH2 [P4] was run?
A: Its MIC is greater than 128 µg/mL.

Q: And the MIC [2]?
A: Its MIC is 64 µg/mL.

Q: And the MIC [3]?
A: Its MIC is 64 µg/mL.

Q: What about the MIC [4] of the same substance?
A: The MIC was 32 µg/mL.

Q: What about the MIC [5] of the same substance?
A: Its MIC is greater than 128 µg/mL.

Q: What about the MIC [6] of the same substance?
A: Its MIC is 64 µg/mL.
